Test results published in patent publication US7030102B1, “Highly bioavailable coenzyme Q-10 cyclodextrin complex” (BioActives, LLC, priority 2003, dated 2006).

Legend:
[1] = test system: Caco2 intestinal cell model; settings: Totterman et al. 1997, Ono et al. 2001; cited from earlier work
Caco2 cells = experiment: In vitro uptake of CoQ-10 in Caco2 cells; type: in vitro ADME, human; settings: 100 μg CoQ-10/flask, sum of reduced and oxidized forms, control = endogenous level
Experimental: The cellular uptake of the CoQ-10 from the cyclodextrin complexes was determined in vitro in model cell culture systems. For example, the uptake was determined using an in vitro Caco2 intestinal cell culture model indicative of in vivo intestinal absorption. This cell line has been used as a model system to examine the selective characteristics of intestinal absorption of compounds, such as vitamin E (Traber et al., 1990), retinol, beta lactoglobulin, palmitic acid (Puyol et al., 1995), carotenoids (Garrett et al., 1999), and polyamines (Turchanowa et al., 2001). […] CoQ-10 incorporated into mixed micelles was used for comparison.
The uptake of CoQ-10 from the cyclodextrin complex dried by different methods was compared to commercially available CoQ-10 powder (99% pure, used in hard capsules) and CoQ-10 powder incorporated into mixed micelles, simulating the digestive process.
The mixed micelles were prepared by the method of Garrett et al. (1999) using sodium taurocholate (bile salt), mono-acylglycerol, oleic acid, phosphatidyl choline, lysophosphatidylcholine, and CoQ-10 in phosphate buffered saline (PBS). The CoQ-10/cyclodextrin complexes were dispersed in PBS. The stock solutions contained 30 mg CoQ-10/10 ml.
The cellular uptake of CoQ-10 as a function of media concentration and exposure time was determined based on the method of Garrett et al. (1999). Caco-2 (ATCC, Rockville, Md.) cells were maintained in high glucose DMEM with 15 mM HEPES and 10% heat inactivated fetal bovine serum, nonessential amino acids, glutamine, and pyruvate in a humidified atmosphere at 5% CO2 and 37° C. The cells were allowed to reach confluency (5–6 days after subculture) and differentiate (14 days) in 25 cm^2 flasks before the start of the experiment.
The stock test samples were diluted in the culture medium for the experiment. The monolayers were washed with PBS before adding the test samples at known CoQ-10 concentration (100 μg/flask). […] The cultures were incubated as before and the CoQ-10 uptake was terminated at indicated times. […] The chromatograms were monitored at 275 nm.

Row | Compound | Cytotoxicity / effect on Caco2 cells [1] | Cellular Total CoQ-10 (Treated/Control) (Caco2 cells; 5 hr incubation) | Cellular Total CoQ-10 (Treated/Control) (Caco2 cells; 10 hr incubation) | Cellular Total CoQ-10 (Treated/Control) (Caco2 cells; 24 hr incubation)
1 | dimethyl β-cyclodextrin | dose dependent cytotoxicity |  |  | 
2 | maltosyl-α-cyclodextrin | less toxic as compared to α-cyclodextrin |  |  | 
3 | OC[C@H]1O[C@@H]2O[C@H]3[C@H](O)[C@@H](O)[C@@H](O[C@H]4[C@H](O)[C@@H](O)[C@@H](O[C@H]5[C@H](O)[C@@H](O)[C@@H](O[C@H]6[C@H](O)[C@@H](O)[C@@H](O[C@H]7[C@H](O)[C@@H](O)[C@@H](O[C@H]8[C@H](O)[C@@H](O)[C@@H](O[C@H]9[C@H](O)[C@@H](O)[C@@H](O[C@H]1[C@H](O)[C@H]2O)O[C@@H]9CO)O[C@@H]8CO)O[C@@H]7CO)O[C@@H]6CO)O[C@@H]5CO)O[C@@H]4CO)O[C@@H]3CO [γ-Cyclodextrin] | least effect even at a relatively high concentration of 150 mM |  |  | 
4 | COC1=C(OC)C(=O)C(C/C=C(\C)CC/C=C(\C)CC/C=C(\C)CC/C=C(\C)CC/C=C(\C)CC/C=C(\C)CC/C=C(\C)CC/C=C(\C)CC/C=C(\C)CCC=C(C)C)=C(C)C1=O [CoQ-10 Powder, Coenzyme Q-10] |  | 1.0 | 1.0 | 1.0
